What was measured:
[1] = Metabolic stability in human liver microsomes assessed as half life at 1 uM incubated for 30 mins by LC-MS/MS analysis; format: ADME, Microsome
[2] = Metabolic stability in mouse liver microsomes assessed as half life at 1 uM incubated for 30 mins by LC-MS/MS analysis; format: ADME, Microsome
[3] = Distribution coefficient between octanol and PBS, log D of compound in pH 7.4 at 100 uM incubated for 12 hrs by LC-MS/MS analysis; format: physicochemical
[4] = MRT (0 to last) in C57BL/6 mouse at 10 mg/kg, ip measured upto 24 hrs; format: ADME, organism-based; details: in vivo
[5] = Cmax in C57BL/6 mouse at 10 mg/kg, ip measured upto 24 hrs; format: ADME, organism-based; set-up: route intraperitoneal, dose 10 mg/kg, time <=24; details: in vivo
[6] = Tmax in C57BL/6 mouse at 10 mg/kg, ip measured upto 24 hrs; format: ADME, organism-based; details: in vivo
[7] = AUC (0 to last) in C57BL/6 mouse at 10 mg/kg, ip measured upto 24 hrs; format: ADME, organism-based; set-up: route intraperitoneal, dose 10 mg/kg, time <=24; details: in vivo
[8] = AUC (0 to infinity) in C57BL/6 mouse at 10 mg/kg, ip measured upto 24 hrs; format: ADME, organism-based; set-up: route intraperitoneal, dose 10 mg/kg, time <=24; details: in vivo
[9] = AUC extrapolated in C57BL/6 mouse at 10 mg/kg, ip measured upto 24 hrs; format: ADME, organism-based; details: in vivo
[10] = Half life in C57BL/6 mouse at 10 mg/kg, ip measured upto 24 hrs; format: ADME, organism-based; details: in vivo

Row | half-life at 1 µM [1] [h] | half-life at 1 µM [2] [h] | logD at 12 h, 100 µM [3] | Structure (SMILES) | also measured
1 | 1.83 | 7.95 | 2.5 | CN1CCC(NC(=O)C(NC(=O)Nc2ccc(Br)cc2)C2CCCC2)CC1 (configuration not stated) | –
2 | – | – | 3.7 | Cc1cncc(NC(=O)C2(NC(=O)Nc3ccc(Br)cc3)CCCC2)c1 | –
3 | 1.02 | 0.183 | > 4 | O=C(Nc1ccc(Br)cc1)NC(CC1CCCCC1)C(=O)Nc1cccnc1 (configuration not stated) | –
4 | 1.58 | 1.08 | 4.2 | CC(C)C[C@H](NC(=O)Nc1ccc(Br)cc1)C(=O)Nc1cccnc1 | –
5 | 2.62 | 3.23 | 1.2 | CN1CCC(NC(=O)C2(NC(=O)Nc3ccc(Br)cc3)CCCC2)CC1 | –
6 | 0.267 | 0.183 | > 4 | O=C(Nc1ccc(Br)cc1)NC(C(=O)Nc1cccnn1)C1CCCC1 (configuration not stated) | –
7 | 1.83 | 1.73 | 3.7 | O=C(Nc1ccc(Br)cc1)NC1(C(=O)Nc2cncnc2)CCCC1 | –
8 | 0.133 | 0.15 | 4.3 | O=C(Nc1ccc(Br)cc1)NC1(C(=O)Nc2ccccn2)CCCC1 | –
9 | – | – | > 4 | CC(C)n1cc(NC(=O)C(NC(=O)Nc2ccc(Br)cc2)C2CCCC2)cn1 (configuration not stated) | –
10 | – | – | > 4 | Cc1nn(C)cc1NC(=O)C(NC(=O)Nc1ccc(Br)cc1)C1CCCC1 (configuration not stated) | –
11 | 1.33 | 0.683 | > 4 | O=C(Nc1ccc(Br)cc1)NC(C(=O)Nc1cccnc1)C1CC1 (configuration not stated) | –
12 | > 6.67 | > 6.67 | 4.3 | O=C(Nc1ccc(Br)cc1)NC(C(=O)NC1COC1)C1CCCC1 (configuration not stated) | –
13 | 3.45 | 1.73 | > 4 | O=C(Nc1ccc(Br)cc1)NC(C(=O)NC1CCOCC1)C1CCCC1 (configuration not stated) | –
14 | 0.217 | 0.417 | 4.7 | O=C(Nc1ccc(Br)cc1)NC(C(=O)NCC1CCCO1)C1CCCC1 (configuration not stated) | –
15 | 0.867 | 0.533 | 4.4 | O=C(Nc1ccc(Br)cc1)NC1(C(=O)Nc2ccc(Cl)nc2)CCCC1 | –
16 | 2.17 | 1.5 | 4.2 | CC(C)n1cc(NC(=O)C2(NC(=O)Nc3ccc(Br)cc3)CCCC2)cn1 | –
17 | 3.07 | 1.53 | 4 | O=C(Nc1ccc(Br)cc1)NC(C(=O)Nc1cncnc1)C1CCCC1 (configuration not stated) | –
18 | 1.38 | 0.55 | > 4 | O=C(Nc1ccc(Br)cc1)NC(C(=O)Nc1cccnc1)C1CCCC1 (configuration not stated) | MRT last at 24 h [4]: 2.41 h; Cmax [5]: 31900 ng/mL; Tmax [6]: 0.5 h; AUC(0-t) at 24 h [7]: 69000 ng·h/mL; AUC(0-inf) [8]: 69000 ng·h/mL; %AUCextra [9]: 0.02%; half-life [10]: 2.08 h
19 | 1.87 | 0.367 | 3.6 | O=C(CNC(=O)Nc1ccc(Br)cc1)Nc1cccnc1 | –
20 | 1.52 | 0.733 | > 4 | O=C(Nc1ccc(Br)cc1)N[C@@H](CC1CC1)C(=O)Nc1cccnc1 | –
21 | 2.6 | 3.78 | 3.1 | Cc1nn(C)cc1NC(=O)C1(NC(=O)Nc2ccc(Br)cc2)CCCC1 | –
22 | 8.67 | 6.98 | 1.1 | O=C(Nc1ccc(Br)cc1)NC1(C(=O)NCc2nn[nH]n2)CCCC1 | –
23 | 3.13 | 1.5 | 4.7 | O=C(Nc1ccc(Br)cc1)NC(C(=O)Nc1cccnc1)C1CCOCC1 (configuration not stated) | –
24 | – | – | 1.6 | O=C(Nc1ccc(Br)cc1)NC(C(=O)NC1CNC1)C1CCCC1 (configuration not stated) | –
25 | 1.67 | 0.6 | 3.9 | Cc1ccc(NC(=O)C2(NC(=O)Nc3ccc(Br)cc3)CCCC2)cn1 | –
26 | 1.8 | 1.32 | 4.1 | O=C(Nc1ccc(Br)cc1)NC1(C(=O)Nc2cccnc2)CCCC1 | –
